In brackets after ≈: the same amount, converted by molar mass. Where two headings read alike, the source gives them in different places.
Experiments:
[1] = molecular target: T1, recombinant Escherichia coli LpxC enzyme (rLpxC) (Escherichia coli, UniProt P0A725); test: Inhibition of recombinant Escherichia coli LpxC enzyme activity (LC-MS); format: biochemical; details: 37°C, 30 minutes reaction, substrate UDP-3-O (R-hydroxytetradecanoyl)-N-acetylglucosamine
T1 sequence (P0A725 1-305): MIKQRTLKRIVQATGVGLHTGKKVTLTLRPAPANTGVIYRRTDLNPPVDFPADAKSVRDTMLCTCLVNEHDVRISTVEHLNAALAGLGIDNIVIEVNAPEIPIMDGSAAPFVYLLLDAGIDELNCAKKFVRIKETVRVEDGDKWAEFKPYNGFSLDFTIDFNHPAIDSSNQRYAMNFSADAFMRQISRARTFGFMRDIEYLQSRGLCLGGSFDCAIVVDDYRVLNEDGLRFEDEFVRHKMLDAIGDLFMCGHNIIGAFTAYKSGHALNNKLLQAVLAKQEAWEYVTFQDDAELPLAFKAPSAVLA
Experimental: Preparation of recombinant Escherichia coli LpxC enzyme (rLpxC). 2 µL of recombinant Escherichia coli LpxC enzyme (6.29 mg/mL) was added to 18 µL of distilled water. After thorough mixing, 2 µL of this mixture was added to 1042.4 µL of distilled water and mixed well to prepare a 36 nM working solution.
The substrate was UDP-3-O (R-hydroxytetradecanoyl)-N-acetylglucosamine, with UDP-α-D-N-Acetylglucosamine Disodium Salt as the internal standard. Mobile phase A: 90% water-10% acetonitrile containing 10 mM ammonium acetate; B: acetonitrile.
Reaction system: Corresponding solutions were prepared as per the table below, and placed in a 37°C metal bath, and mixed at 300 rpm for 10 minutes. After mixing for 10 minutes, 10 µl of 250 µM substrate was added to each group to initiate the reaction, and placed in a 37°C metal bath and reacted at 300 rpm for 30 minutes.
Termination solution: 1.1 µL of 1 mM internal standard was added to 2 mL of acetonitrile. 1.5 mL of EP tubes were taken and 100 µL of termination solution was added to each EP tube. The concentration of the internal standard in the final 350 µL system is 100 ng/mL.
Detection: 10 µL of reaction solution was added to 100 µL of the termination solution in an EP tube, mixed thoroughly, and then 240 µL of distilled water was added and mixed well, centrifuged at 14,000 rpm for 5 minutes. 70 µL of supernatant was transferred to an LC-MS vial and API 6500 Qtrap LC-MS system was used to measure substrates and metabolites. The median inhibition concentrations (IC50) of the four optical isomers and ACHN-975 against rLpxC enzyme were calculated. Table 4 Inhibitory activity of 4 optical isomers and control drug against recombinant Escherichia coli LpxC enzyme

[2] = system: Escherichia coli ATCC BAA2469 (CRE, NDM-1-producing); test: In vivo antibacterial activity, intraperitoneal infection in mice (survival over 7 days); details: for effective dose of in vivo antibacterial activity: mice with intraperitoneal infection by Escherichia coli ATCC BAA2469, intravenous; for Animal survival rate / Number of surviving animals: mice, one intravenous administration 1 hour post-infection, 7 days; for Number of surviving animals: 5 animals per group
Experimental: Mice were randomly grouped based on body weight, with 5 mice in each group, regardless of gender. The infectious bacteria was Escherichia coli ATCC BAA2469 (CRE, NDM-1-producing). The test bacterial solution was diluted with 5% high-activity dry yeast. Mice received intraperitoneal injection of 0.5 mL of 100% minimum lethal dose (100% MLD) bacterial solution. One intravenous administration was given at 1 hour post-infection at a dose volume of 10 mL/kg. Animal survival numbers were observed over 7 days, and survival rates were calculated.

[3] = system: Enterobacter cloacae; test: In vitro antibacterial activity, agar dilution method (MIC); format: cell-based
Experimental: According to the relevant operating procedures of the Clinical Laboratory Standards Institute (CLSI) in the United States, an antimicrobial susceptibility testing was conducted using the agar dilution method. […] The agar was allowed to solidify and set aside for later use.
(§1) The test bacteria were propagated in broth and adjusted to a turbidity of 0.5 McFarland (approximately 1-2 × 10^8 CFU/mL) using a turbidimeter before inoculation. The 0.5 McFarland bacterial solution was then diluted 10-fold in broth (approximately 1-2 × 10^7 CFU/mL). A multipoint inoculator was used to inoculate the above bacterial solution onto a series of plates containing different concentrations of drugs (with an inoculation amount of approximately 10^4 CFU per inoculation site). After incubation at a constant temperature of 35°C for 18 hours, results were observed. The minimum concentration of drugs contained in sterile growth plates was determined as the Minimal Inhibitory Concentration (MIC).

[4] = system: Escherichia coli; test: as above; format: cell-based; details: agar dilution, 35°C
Experimental: (§2) According to the relevant operating procedures of the Clinical Laboratory Standards Institute (CLSI) in the United States, an antimicrobial susceptibility testing was conducted using the agar dilution method. […]. The agar was allowed to solidify and set aside for later use.
as §1

[5] = system: Pseudomonas aeruginosa; test: as above; format: cell-based
Experimental: as §2, §1

[6] = system: Pantoea agglomerans; test: as above; format: cell-based
Experimental: as §2, §1

[7] = system: Citrobacter freundii; test: as above; format: cell-based
Experimental: as §2, §1

[8] = system: Serratia marcescens; test: as above; format: cell-based
Experimental: as §2, §1

[9] = system: Klebsiella pneumoniae; test: as above; format: cell-based; details: agar dilution, 35°C
Experimental: as §2, §1

[10] = system: Proteus mirabilis; test: as above; format: cell-based
Experimental: as §2, §1

[11] = system: Proteus vulgaris; test: as above; format: cell-based
Experimental: as §2, §1

[12] = system: Enterobacter aerogenes; test: as above; format: cell-based
Experimental: as §2, §1

COCC1CC1C#CC#Cc1ccc(C(=O)NC(C(=O)NO)C(C)(C)N)cc1 (mixture of isomers) [Ia/Ib racemate]
IC50 [1]: 1.03 nM
effective dose of in vivo antibacterial activity [2]: below 1.5 mg/kg
Animal survival rate ([2]; dose 0.35 mg/kg): 0%
Number of surviving animals ([2]; dose 0.35 mg/kg): 0 individuals
Animal survival rate ([2]; dose 0.7 mg/kg): 0%
Number of surviving animals ([2]; dose 0.7 mg/kg): 0 individuals
Animal survival rate ([2]; dose 1.4 mg/kg): 40%
Number of surviving animals ([2]; dose 1.4 mg/kg): 2 individuals
MIC ([3]; Enterobacter cloacae CDC1000654 (NDM-1-producing), agar dilution, 35°C, 18 hours): 2 µg/mL
MIC ([4]; Escherichia coli 13-43 (mcr-1), 18 hours): 0.12 µg/mL
MIC ([4]; Escherichia coli 17-R28 (CRE, NDM-1-producing), 18 hours): 0.12 µg/mL
MIC ([4]; Escherichia coli ATCC 2469 (CRE, NDM-1-producing), 18 hours): 0.5 µg/mL
MIC ([4]; Escherichia coli ATCC 35218 (ESBLs-producing), 18 hours): 0.25 µg/mL
MIC ([5]; Pseudomonas aeruginosa PAO1, agar dilution, 35°C, 18 hours): 1 µg/mL
MIC ([6]; Pantoea agglomerans ATCC 27993, agar dilution, 35°C, 18 hours): 1 µg/mL
MIC ([7]; Citrobacter freundii ATCC 43864, agar dilution, 35°C, 18 hours): 0.25 µg/mL
MIC ([8]; Serratia marcescens ATCC 21074, agar dilution, 35°C, 18 hours): 0.25 µg/mL
MIC ([9]; Klebsiella pneumoniae 09-20 (mcr-1), 18 hours): 0.5 µg/mL
MIC ([9]; Klebsiella pneumoniae 17-R27 (CRE), 18 hours): 1 µg/mL
MIC ([9]; Klebsiella pneumoniae 18-8 (ESBLs-producing), 18 hours): 0.5 µg/mL
MIC ([9]; Klebsiella pneumoniae ATCC 700603 (ESBLs-producing), 18 hours): 2 µg/mL
MIC ([9]; Klebsiella pneumoniae ATCC BAA-2146 (CRE, NDM-1-producing), 18 hours): 2 µg/mL
MIC ([10]; Proteus mirabilis ATCC 49565, agar dilution, 35°C, 18 hours): 1 µg/mL
MIC ([11]; Proteus vulgaris ATCC 29905, agar dilution, 35°C, 18 hours): 0.25 µg/mL
MIC ([12]; Enterobacter aerogenes ATCC 13048, agar dilution, 35°C, 18 hours): 1 µg/mL

CC(C)(N)[C@H](NC(=O)c1ccc(C#CC#C[C@@H]2C[C@H]2CO)cc1)C(=O)NO [ACHN-975]
IC50 [1]: 1.07 nM
effective dose of in vivo antibacterial activity [2]: > 1.5 mg/kg
Animal survival rate ([2]; dose 1.5 mg/kg): 0%
Number of surviving animals ([2]; dose 1.5 mg/kg): 0 individuals
Animal survival rate ([2]; dose 3 mg/kg): 60%
Number of surviving animals ([2]; dose 3 mg/kg): 3 individuals
Animal survival rate ([2]; dose 6 mg/kg): 100%
Number of surviving animals ([2]; dose 6 mg/kg): 5 individuals
MIC ([3]; Enterobacter cloacae, 18 h): 4 µg/mL (≈ 10.8 µM)
MIC ([4]; Escherichia coli, 18 h, Escherichia coli 13-43 (mcr-1)): 0.5 µg/mL (≈ 1.35 µM)
MIC ([4]; Escherichia coli, 18 h, Escherichia coli 17-R28 (CRE, NDM-1-producing)): 0.5 µg/mL (≈ 1.35 µM)
MIC ([4]; Escherichia coli, ATCC2469, 18 h, Escherichia coli ATCC 2469 (CRE, NDM-1-producing), 18 hours): 0.5 µg/mL (≈ 1.35 µM)
MIC ([4]; Escherichia coli, ATCC35218, 18 h, Escherichia coli ATCC 35218 (ESBLs-producing), 18 hours, read-out: MIC): 0.5 µg/mL (≈ 1.35 µM)
MIC ([5]; Pseudomonas aeruginosa, PAO1, 18 h): 0.25 µg/mL (≈ 0.677 µM)
MIC ([6]; Pantoea agglomerans, ATCC27993, 18 h): 4 µg/mL (≈ 10.8 µM)
MIC ([7]; Citrobacter freundii, ATCC43864, 18 h): 0.5 µg/mL (≈ 1.35 µM)
MIC ([8]; Serratia marcescens, ATCC21074, 18 h): 0.25 µg/mL (≈ 0.677 µM)
MIC ([9]; Klebsiella pneumoniae, 18 h, Klebsiella pneumoniae 09-20 (mcr-1)): 1 µg/mL (≈ 2.71 µM)
MIC ([9]; Klebsiella pneumoniae, 18 h, Klebsiella pneumoniae 17-R27 (CRE)): 2 µg/mL (≈ 5.41 µM)
MIC ([9]; Klebsiella pneumoniae, 18 h, Klebsiella pneumoniae 18-8 (ESBLs-producing), 18 hours, read-out: MIC): 1 µg/mL (≈ 2.71 µM)
MIC ([9]; Klebsiella pneumoniae, ATCC700603, 18 h, Klebsiella pneumoniae ATCC 700603 (ESBLs-producing), 18 hours, read-out: MIC): 4 µg/mL (≈ 10.8 µM)
MIC ([9]; Klebsiella pneumoniae, ATCCBAA2146, 18 h, Klebsiella pneumoniae ATCC BAA-2146 (CRE, NDM-1-producing), 18 hours): 4 µg/mL (≈ 10.8 µM)
MIC ([10]; Proteus mirabilis, ATCC49565, 18 h): 2 µg/mL (≈ 5.41 µM)
MIC ([11]; Proteus vulgaris, ATCC29905, 18 h): 0.06 µg/mL (≈ 0.162 µM)
MIC ([12]; Klebsiella aerogenes, ATCC13048, 18 h): 1 µg/mL (≈ 2.71 µM)

— patent EP4745118A1, “HYDROXAMIC ACID COMPOUND OR PHARMACEUTICALLY ACCEPTABLE SALT THEREOF, AND USE THEREOF AND PREPARATION METHOD THEREFOR” (priority 2023, dated 2025)
